# Experimental data published in PubChem BioAssay AID651872 (NMMLSC, 2012).
# Target: Beta-2 adrenergic receptor (Homo sapiens) (UniProt P07550)
# Assay: beta2AR agonists driving receptor internalization, dose response, cell-based, FAP fluorogen, flow cytometry, powder set 4 (AID 651872)
# Settings: AM2.2-beta2AR cells, 90 min
# Beta-2 adrenergic receptor (Homo sapiens), sequence (P07550 whole entry, looked up): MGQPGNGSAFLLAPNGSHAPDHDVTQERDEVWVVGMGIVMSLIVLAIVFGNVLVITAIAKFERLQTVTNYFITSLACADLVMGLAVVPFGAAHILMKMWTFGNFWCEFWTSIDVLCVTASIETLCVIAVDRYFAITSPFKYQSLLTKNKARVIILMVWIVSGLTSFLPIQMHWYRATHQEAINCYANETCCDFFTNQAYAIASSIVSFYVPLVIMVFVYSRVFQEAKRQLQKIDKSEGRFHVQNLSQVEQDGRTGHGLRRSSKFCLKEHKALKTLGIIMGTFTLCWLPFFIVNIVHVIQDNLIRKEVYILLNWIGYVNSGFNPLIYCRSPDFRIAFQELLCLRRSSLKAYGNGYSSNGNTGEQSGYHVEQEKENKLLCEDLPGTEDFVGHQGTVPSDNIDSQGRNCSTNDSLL
row,Structure (SMILES),EC50 [nM]
1,O=C(CN(Cc1ccccc1)S(=O)(=O)c1ccc(Cl)cc1)N1CCN(c2ccccn2)CC1,208
2,CN(CC(=O)N1CCN(c2cccc(C(F)(F)F)c2)CC1)S(=O)(=O)c1ccc(F)cc1,9640
3,CC(=O)Nc1ccc(S(=O)(=O)N2CCCCC2c2cccnc2)cc1 (stereo unspecified),10.5
4,O=C(C1CCC(=O)N1S(=O)(=O)c1ccccc1)N1CCN(c2ccccn2)CC1 (stereo unspecified),26.2

# More lines, now with the values ahead:
row,EC50 [nM],Structure (SMILES)
1,1.6,Cc1ccc(S(=O)(=O)N(C)CC(=O)N2CCN(c3ccccn3)CC2)cc1
2,676,COc1ccccc1N1CCN(C(=O)CN(C)S(=O)(=O)c2ccc(C)cc2)CC1
